From patent US11993600B2, “Saturated spirocyclics as antiviral agents” (ENANTA PHARMACEUTICALS, INC., priority 2021, dated 2024)

target: SARS-CoV-2 3CL-protease (Severe acute respiratory syndrome coronavirus 2 (2019-nCoV) (SARS-CoV-2), UniProt P0DTD1); test: SARS-CoV-2 3C-like (3CL) protease fluorescence assay (FRET); assay type: biochemical; details: recombinant SARS-CoV-2 3CL-protease 10 nM, 30 min preincubation at RT, substrate 40 μM, run in duplicate

Row | Structure (SMILES) | IC50 [nM]
1 | CN(C(=O)c1cc2c(F)cc(F)cc2[nH]1)[C@@H](CC(C)(C)F)C(=O)N1C[C@]2(CCNC2=O)C[C@H]1C#N [Compound 1, N—((S)-1-((3S,5S)-3-cyano-6-oxo-2,7-diazaspiro[4.4]nonan-2-yl)-4-fluoro-4-methyl-1-oxopentan-2-yl)-4,6-difluoro-N-methyl-1H-indole-2-carboxamide] | < 100
2 | CC(C)C[C@@H](C(=O)N1C[C@]2(CCCNC2=O)C[C@H]1C#N)N(C)C(=O)c1cc2c(F)cc(F)cc2[nH]1 [Compound 2, N—((S)-1-((3S,5S)-3-cyano-6-oxo-2,7-diazaspiro[4.5]decan-2-yl)-4-methyl-1-oxopentan-2-yl)-4,6-difluoro-N-methyl-1H-indole-2-carboxamide] | < 100
3 | CN(C(=O)c1cc2c(F)cc(F)cc2[nH]1)[C@@H](CC(C)(C)F)C(=O)N1C[C@]2(CCCNC2=O)C[C@H]1C#N [Compound 3, N—((S)-1-((3S,5S)-3-cyano-6-oxo-2,7-diazaspiro[4.5]decan-2-yl)-4-fluoro-4-methyl-1-oxopentan-2-yl)-4,6-difluoro-N-methyl-1H-indole-2-carboxamide] | < 100
4 | CC(C)C[C@@H](C(=O)N1C[C@]2(CCC3(CC3)NC2=O)C[C@H]1C#N)N(C)C(=O)c1cc2c(F)cc(F)cc2[nH]1 [Compound 4, N—((S)-1-((6S,9S)-9-cyano-5-oxo-4,8-diazadispiro[2.2.4^6.2^3]dodecan-8-yl)-4-methyl-1-oxopentan-2-yl)-4,6-difluoro-N-methyl-1H-indole-2-carboxamide] | < 100
